Measurements taken from patent US20170190671A1, “BIS(ARYL)CATECHOL DERIVATIVES AS HERBICIDES” (E I DU PONT DE NEMOURS AND COMPANY, priority 2014, published 2017).

Tests used:
Test in all cases: Test D postemergence
Assay type in all cases: in vivo
Conditions in all cases: scale 0 to 100
[1] = system: oilseed rape (Brassica napus)
Outline: (§1)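 Ratings of 0–100 reflect visual comparison with control plants at 14 to 21 days. For preemergence, compound was sprayed on silt loam just after sowing; for postemergence, on plants 2 to 18 cm in height.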

[2] = system: green foxtail (Setaria viridis)
Outline: as §1

[3] = system: deadnettle (henbit deadnettle, Lamium amplexicaule)
Outline: as §1

[4] = system: winter barley (Hordeum vulgare)
Outline: as §1

[5] = system: windgrass (Apera spica-venti)
Outline: as §1

[6] = system: cutleaf geranium (Geranium dissectum)
Outline: as §1

[7] = system: wild buckwheat (Polygonum convolvulus)
Outline: as §1

[8] = system: Italian ryegrass (Lolium multiflorum)
Outline: as §1

[9] = system: spring wheat (Triticum aestivum)
Outline: as §1

[10] = system: blackgrass (Alopecurus myosuroides)
Outline: as §1

[11] = system: wild radish (Raphanus raphanistrum)
Outline: as §1

[12] = system: bluegrass (annual bluegrass, Poa annua)
Outline: as §1

[13] = system: Russian thistle (Salsola kali)
Outline: as §1

kochia (Kochia scoparia) = system: kochia (Kochia scoparia)
Outline: as §1

[14] = system: field poppy (Papaver rhoeas)
Outline: as §1

[15] = system: chamomile (scentless chamomile, Matricaria inodora)
Outline: as §1

[16] = system: spring barley (Hordeum vulgare)
Outline: as §1

[17] = system: lambsquarters (Chenopodium album)
Outline: as §1

[18] = system: wild mustard (Sinapis arvensis)
Outline: as §1

[19] = system: pigweed (Amaranthus retroflexus)
Outline: as §1

[20] = system: canarygrass (Phalaris minor)
Outline: as §1

Question: What does the source list for Fc1cnc(Oc2c(Br)cccc2Oc2ncc(Cl)cn2)nc1 [Compound 22]?
Answer: Plant response rating, Oilseed Rape ([1]; 16 g ai/ha): 15; Plant response rating, Oilseed Rape ([1]; 31 g ai/ha): 45; Plant response rating, Oilseed Rape ([1]; 62 g ai/ha): 70; Plant response rating, Oilseed Rape ([1]; 125 g ai/ha): 80; Plant response rating, Foxtail, Green ([2]; 16 g ai/ha): 10; Plant response rating, Foxtail, Green ([2]; 31 g ai/ha): 15; Plant response rating, Foxtail, Green ([2]; 62 g ai/ha): 25; Plant response rating, Foxtail, Green ([2]; 125 g ai/ha): 30; Plant response rating, Deadnettle ([3]; 16 g ai/ha): 50; Plant response rating, Deadnettle ([3]; 31 g ai/ha): 50; Plant response rating, Deadnettle ([3]; 62 g ai/ha): 65; Plant response rating, Deadnettle ([3]; 125 g ai/ha): 90; Plant response rating, Barley, Winter ([4]; 16 g ai/ha): 5; Plant response rating, Barley, Winter ([4]; 31 g ai/ha): 10; Plant response rating, Barley, Winter ([4]; 62 g ai/ha): 10; Plant response rating, Barley, Winter ([4]; 125 g ai/ha): 15; Plant response rating, Windgrass ([5]; 16 g ai/ha): 5; Plant response rating, Windgrass ([5]; 31 g ai/ha): 10; Plant response rating, Windgrass ([5]; 62 g ai/ha): 25; Plant response rating, Windgrass ([5]; 125 g ai/ha): 35; Plant response rating, Geranium, Cutleaf ([6]; 16 g ai/ha): 45; Plant response rating, Geranium, Cutleaf ([6]; 31 g ai/ha): 55; Plant response rating, Geranium, Cutleaf ([6]; 62 g ai/ha): 55; Plant response rating, Geranium, Cutleaf ([6]; 125 g ai/ha): 60; Plant response rating, Buckwheat, Wild ([7]; 16 g ai/ha): 55; Plant response rating, Buckwheat, Wild ([7]; 31 g ai/ha): 65; Plant response rating, Buckwheat, Wild ([7]; 62 g ai/ha): 70; Plant response rating, Buckwheat, Wild ([7]; 125 g ai/ha): 80; Plant response rating, Ryegrass, Italian ([8]; 16 g ai/ha): 15; Plant response rating, Ryegrass, Italian ([8]; 31 g ai/ha): 20; Plant response rating, Ryegrass, Italian ([8]; 62 g ai/ha): 25; Plant response rating, Ryegrass, Italian ([8]; 125 g ai/ha): 35; Plant response rating, Wheat, Spring ([9]; 16 g ai/ha): 5; Plant response rating, Wheat, Spring ([9]; 31 g ai/ha): 5; Plant response rating, Wheat, Spring ([9]; 62 g ai/ha): 10; Plant response rating, Wheat, Spring ([9]; 125 g ai/ha): 15; Plant response rating, Blackgrass ([10]; 16 g ai/ha): 20; Plant response rating, Blackgrass ([10]; 31 g ai/ha): 30; Plant response rating, Blackgrass ([10]; 62 g ai/ha): 35; Plant response rating, Blackgrass ([10]; 125 g ai/ha): 40; Plant response rating, Radish, Wild ([11]; 16 g ai/ha): 25; Plant response rating, Radish, Wild ([11]; 31 g ai/ha): 35; Plant response rating, Radish, Wild ([11]; 62 g ai/ha): 90; Plant response rating, Radish, Wild ([11]; 125 g ai/ha): 90; Plant response rating, Bluegrass ([12]; 16 g ai/ha): 0; Plant response rating, Bluegrass ([12]; 31 g ai/ha): 5; Plant response rating, Bluegrass ([12]; 62 g ai/ha): 15; Plant response rating, Bluegrass ([12]; 125 g ai/ha): 40; Plant response rating, Russian Thistle ([13]; 16 g ai/ha): 0; Plant response rating, Russian Thistle ([13]; 31 g ai/ha): 5; Plant response rating, Russian Thistle ([13]; 62 g ai/ha): 10; Plant response rating, Russian Thistle ([13]; 125 g ai/ha): 15; Plant response rating, Kochia (kochia (Kochia scoparia); 16 g ai/ha): 40; Plant response rating, Kochia (kochia (Kochia scoparia); 31 g ai/ha): 45; Plant response rating, Kochia (kochia (Kochia scoparia); 62 g ai/ha): 60; Plant response rating, Kochia (kochia (Kochia scoparia); 125 g ai/ha): 70; Plant response rating, Field Poppy ([14]; 16 g ai/ha): 55; Plant response rating, Field Poppy ([14]; 31 g ai/ha): 65; Plant response rating, Field Poppy ([14]; 62 g ai/ha): 70; Plant response rating, Field Poppy ([14]; 125 g ai/ha): 70; Plant response rating, Chamomile ([15]; 16 g ai/ha): 0; Plant response rating, Chamomile ([15]; 31 g ai/ha): 0; Plant response rating, Chamomile ([15]; 62 g ai/ha): 0; Plant response rating, Chamomile ([15]; 125 g ai/ha): 5; Plant response rating, Barley, Spring ([16]; 16 g ai/ha): 5; Plant response rating, Barley, Spring ([16]; 31 g ai/ha): 10; Plant response rating, Barley, Spring ([16]; 62 g ai/ha): 15; Plant response rating, Barley, Spring ([16]; 125 g ai/ha): 20; Plant response rating, Lambsquarters ([17]; 16 g ai/ha): 50; Plant response rating, Lambsquarters ([17]; 31 g ai/ha): 40; Plant response rating, Lambsquarters ([17]; 62 g ai/ha): 75; Plant response rating, Lambsquarters ([17]; 125 g ai/ha): 70; Plant response rating, Mustard, Wild ([18]; 16 g ai/ha): 35; Plant response rating, Mustard, Wild ([18]; 31 g ai/ha): 40; Plant response rating, Mustard, Wild ([18]; 62 g ai/ha): 55; Plant response rating, Mustard, Wild ([18]; 125 g ai/ha): 75; Plant response rating, Pigweed ([19]; 16 g ai/ha): 75; Plant response rating, Pigweed ([19]; 31 g ai/ha): 80; Plant response rating, Pigweed ([19]; 62 g ai/ha): 75; Plant response rating, Pigweed ([19]; 125 g ai/ha): 95; Plant response rating, Canarygrass ([20]; 16 g ai/ha): 10; Plant response rating, Canarygrass ([20]; 31 g ai/ha): 10; Plant response rating, Canarygrass ([20]; 62 g ai/ha): 20; Plant response rating, Canarygrass ([20]; 125 g ai/ha): 25
